Measured values: paper PMC5805629 (Journal of medicinal chemistry, 2018)

What was measured:
[1] = molecular target: T1, human P-gp (Homo sapiens, UniProt P08183); details: 20 min, 2.5 µM, pH 6.8
[2] = molecular target: CYP3A4 (Homo sapiens, UniProt P08684); test: In vitro CYP3A4 enzyme inhibition assay; assay type: in vitro ADME; details: 25 μM
[3] = molecular target: T1, human P-gp; details: read-out: [125I]-IAAP labeling IC50; inhibition of photolabeling of P-gp; cited from earlier work
[4] = tested on: SW620/Ad300 drug-resistant cell lines; details: 10 μM in vitro; cited from earlier work
[5] = tested on: SW620/Ad300 drug-resistant cell lines; details: cited from earlier work
[6] = tested on: tumor; details: mice; no apparent side-effects; cited from earlier work
[7] = tested on: HEK 293-pcDNA 3.1 cells; test: MDR reversal; assay type: cell-based; details: 72 h, read-out: IC50 ± SD of paclitaxel
[8] = MDR reversal; assay type: cell-based; details: human
[9] = tested on: parental and resistant cell lines; test: Preliminary cytotoxicity of reversal compounds treated alone; assay type: cell-based; details: 5 μM concentration

T1 sequence (P08183 whole entry): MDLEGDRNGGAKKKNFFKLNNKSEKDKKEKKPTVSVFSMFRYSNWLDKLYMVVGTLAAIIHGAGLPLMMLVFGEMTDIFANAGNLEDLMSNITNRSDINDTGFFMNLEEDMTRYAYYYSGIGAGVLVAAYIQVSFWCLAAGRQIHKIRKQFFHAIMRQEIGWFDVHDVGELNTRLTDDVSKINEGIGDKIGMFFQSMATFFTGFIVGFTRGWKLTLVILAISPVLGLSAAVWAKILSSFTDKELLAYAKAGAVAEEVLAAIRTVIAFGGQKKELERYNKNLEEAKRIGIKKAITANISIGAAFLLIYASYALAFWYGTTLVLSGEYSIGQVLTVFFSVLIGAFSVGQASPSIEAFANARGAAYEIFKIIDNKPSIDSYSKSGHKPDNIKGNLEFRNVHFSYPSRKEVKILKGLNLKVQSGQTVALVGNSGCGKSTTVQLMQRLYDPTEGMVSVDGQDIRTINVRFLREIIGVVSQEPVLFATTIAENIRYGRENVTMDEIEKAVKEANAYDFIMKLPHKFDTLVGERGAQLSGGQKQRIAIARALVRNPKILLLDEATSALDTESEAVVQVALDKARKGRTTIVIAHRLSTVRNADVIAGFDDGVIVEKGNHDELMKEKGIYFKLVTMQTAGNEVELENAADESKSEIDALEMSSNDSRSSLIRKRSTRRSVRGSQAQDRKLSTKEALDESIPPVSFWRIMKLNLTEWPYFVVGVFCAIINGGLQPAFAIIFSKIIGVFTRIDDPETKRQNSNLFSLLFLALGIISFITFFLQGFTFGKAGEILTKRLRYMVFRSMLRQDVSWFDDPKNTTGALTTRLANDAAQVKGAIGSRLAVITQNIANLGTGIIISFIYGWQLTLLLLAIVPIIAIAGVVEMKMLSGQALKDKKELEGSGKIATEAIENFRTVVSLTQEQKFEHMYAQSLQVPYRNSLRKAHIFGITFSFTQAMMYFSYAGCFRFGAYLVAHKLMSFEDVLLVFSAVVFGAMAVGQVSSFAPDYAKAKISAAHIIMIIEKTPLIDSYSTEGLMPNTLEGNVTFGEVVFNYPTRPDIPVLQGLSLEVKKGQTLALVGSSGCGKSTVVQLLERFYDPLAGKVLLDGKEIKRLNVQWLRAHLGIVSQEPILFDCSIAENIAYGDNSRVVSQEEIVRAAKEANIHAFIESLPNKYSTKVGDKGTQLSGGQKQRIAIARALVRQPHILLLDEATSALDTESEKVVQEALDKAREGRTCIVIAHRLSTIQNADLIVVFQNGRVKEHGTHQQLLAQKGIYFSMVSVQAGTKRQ
CYP3A4, sequence (P08684 whole entry): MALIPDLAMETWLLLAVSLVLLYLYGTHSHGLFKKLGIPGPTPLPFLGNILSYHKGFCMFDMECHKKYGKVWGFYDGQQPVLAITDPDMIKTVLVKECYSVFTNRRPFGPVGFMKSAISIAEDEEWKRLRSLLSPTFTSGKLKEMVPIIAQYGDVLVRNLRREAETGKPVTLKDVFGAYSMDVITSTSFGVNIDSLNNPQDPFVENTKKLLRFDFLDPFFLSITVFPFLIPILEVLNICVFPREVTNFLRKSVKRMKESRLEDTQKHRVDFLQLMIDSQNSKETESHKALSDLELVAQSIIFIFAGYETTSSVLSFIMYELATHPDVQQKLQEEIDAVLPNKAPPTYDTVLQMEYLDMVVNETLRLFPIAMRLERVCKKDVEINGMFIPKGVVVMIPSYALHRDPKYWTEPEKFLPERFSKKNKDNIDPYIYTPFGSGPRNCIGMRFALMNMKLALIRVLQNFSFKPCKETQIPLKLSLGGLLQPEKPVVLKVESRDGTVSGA

## COc1cc(C(=O)N[C@H](c2nc(C(=O)NCC3CCC(F)(F)CC3)cs2)C(C)C)cc(OC)c1OC [Compound 63, (S)-N-((4,4-Difluorocyclohexyl)methyl)-2-(2-methyl-1-(3,4,5-trimethoxybenzamido)propyl)thiazole-4-carboxamide]
[1]
  ATPase activity % Stimulation: 21%

## COc1cc(C(=O)NC(Cc2ccccc2)c2nc(C(=O)NC3CCC(F)(F)CC3)cs2)cc(OC)c1OC (stereo not shown) [Compound 109, N-(4,4-Difluorocyclohexyl)-2-(2-phenyl-1-(3,4,5-trimethoxybenzamido)ethyl)thiazole-4-carboxamide]
[2]
  CYP3A4 Inhibition (%): did not inhibit

## COc1cc(C(=O)N[C@H](c2nc(C(=O)NC3CCNCC3)cs2)C(C)C)cc(OC)c1OC [Compound 42, (S)-2-(2-Methyl-1-(3,4,5-trimethoxybenzamido)propyl)-N-(piperidin-4-yl)thiazole-4-carboxamide]
[1]
  ATPase activity % Stimulation: 15%

## COc1cc(C(=O)N[C@H](c2nc(C(=O)Nc3ccccc3C(=O)c3ccccc3)cs2)C(C)C)cc(OC)c1OC [Compound 1, (S)-N-(2-benzoylphenyl)-2-(2-methyl-1-(3,4,5-trimethoxybenzamido)propyl)thiazole-4-carboxamide]
[3]
  IC50: 720 nM
[4]
  reversal of resistance to paclitaxel, doxorubicin and vincristine: significant reversal of resistance
[5]
  intracellular paclitaxel concentration: increased intracellular paclitaxel concentration
[6]
  tumor volume and tumor weight: reduced tumor volume and tumor weight

## CC(=O)O[C@H]1C(=O)[C@@]2(C)[C@H]([C@H](OC(=O)c3ccccc3)[C@]3(O)C[C@H](OC(=O)[C@H](O)[C@@H](NC(=O)c4ccccc4)c4ccccc4)C(C)=C1C3(C)C)[C@]1(OC(C)=O)CO[C@@H]1C[C@@H]2O [Paclitaxel, paclitaxel]
[7]
  IC50: 71 ± 15 nM
[8]
  IC50 at 72 h: 2050 ± 87 nM

## O[C@@H](COc1cccc2ncccc12)CN1CCN([C@@H]2c3ccccc3[C@@H]3[C@H](c4ccccc42)C3(F)F)CC1 [Zosuquidar, zosuquidar]
[9]
  cytotoxicity: cytotoxic
